Columns and labels:
Assay in all cases: relative viability (nuclei count vs DMSO), 5 days (fraction); higher = more cells survive
Decitabine + Crizotinib = compound: Nc1ncn([C@H]2C[C@H](O)[C@@H](CO)O2)c(=O)n1 [Decitabine] + C[C@@H](Oc1cc(-c2cnn(C3CCNCC3)c2)cnc1N)c1c(Cl)ccc(F)c1Cl [Crizotinib] (partner 1 µM)
Procedure, shortened: (§1)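 For relative viability, nuclei counts in treated wells were divided by those in vehicle wells. Lung cancer cell lines had been pin-tool dosed in 1536-well plates the day after seeding and cultured for 5 days, then fixed and stained in one step (final 0.05% Triton X-100, 1% formaldehyde, 1 ug/ml Hoechst) and imaged at 4×. Doses were one drug alone or a fixed anchor-drug dose plus five library-drug doses (not always all listed) in √10 steps, and values are duplicate-plate medians.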

Decitabine + Pictilisib = compound: Nc1ncn([C@H]2C[C@H](O)[C@@H](CO)O2)c(=O)n1 [Decitabine] + CS(=O)(=O)N1CCN(Cc2cc3nc(-c4cccc5[nH]ncc45)nc(N4CCOCC4)c3s2)CC1 [Pictilisib] (partner 1 µM)
Procedure, shortened: as §1

[1] = compound: O=C(C[C@H]1NCCC[C@@H]1O)Cn1cnc2cc(Br)c(Cl)cc2c1=O (racemic) [Halofuginone] + CC(=O)c1c(C)c2cnc(Nc3ccc(N4CCNCC4)cn3)nc2n(C2CCCC2)c1=O [Palbociclib] (partner 0.5 µM)
Procedure, shortened: as §1

Cediranib + Palbociclib = compound: COc1cc2c(Oc3ccc4[nH]c(C)cc4c3F)ncnc2cc1OCCCN1CCCC1 [Cediranib] + CC(=O)c1c(C)c2cnc(Nc3ccc(N4CCNCC4)cn3)nc2n(C2CCCC2)c1=O [Palbociclib] (partner 0.5 µM)
Procedure, shortened: as §1

| Cell Line | relative viability (Decitabine + Crizotinib; first compound 0.04 µM) | relative viability (Decitabine + Crizotinib; first compound 0.1265 µM) | relative viability (Decitabine + Crizotinib; first compound 0.4 µM) | relative viability (Decitabine + Crizotinib; first compound 1.265 µM) | relative viability (Decitabine + Crizotinib; first compound 4 µM) | relative viability (Decitabine + Pictilisib; first compound 0.04 µM) | relative viability (Decitabine + Pictilisib; first compound 0.1265 µM) | relative viability (Decitabine + Pictilisib; first compound 0.4 µM) | relative viability (Decitabine + Pictilisib; first compound 1.265 µM) | relative viability (Decitabine + Pictilisib; first compound 4 µM) | relative viability ([1]; first compound 0.001 µM) | relative viability ([1]; first compound 0.003162 µM) | relative viability ([1]; first compound 0.01 µM) | relative viability ([1]; first compound 0.03162 µM) | relative viability ([1]; first compound 0.1 µM) | relative viability (Cediranib + Palbociclib; first compound 0.04 µM) | relative viability (Cediranib + Palbociclib; first compound 0.1265 µM) | relative viability (Cediranib + Palbociclib; first compound 0.4 µM) | relative viability (Cediranib + Palbociclib; first compound 1.265 µM) | relative viability (Cediranib + Palbociclib; first compound 4 µM) |
| --- | --- | --- | --- | --- | --- | --- | --- | --- | --- | --- | --- | --- | --- | --- | --- | --- | --- | --- | --- | --- |
| IA-LM | 0.342 | 0.274 | 0.2 | 0.191 | 0.102 | 0.253 | 0.269 | 0.163 | 0.147 | 0.0969 |  |  |  |  |  |  |  |  |  |  |
| LC-2-ad | 0.391 | 0.371 | 0.34 | 0.262 | 0.283 | 0.359 | 0.37 | 0.495 | 0.3 | 0.275 | 0.504 | 0.505 | 0.456 | 0.478 | 0.411 | 0.527 | 0.55 | 0.456 | 0.494 | 0.399 |
| LCLC-97TM1 | 0.155 | 0.16 | 0.18 | 0.15 | 0.101 | 0.145 | 0.166 | 0.0979 | 0.105 | 0.117 | 0.3 | 0.194 | 0.257 | 0.239 | 0.219 | 0.277 |  | 0.194 | 0.211 | 0.277 |
| LCLC-103H | 1.01 | 1.02 | 0.78 | 0.82 | 0.79 | 0.638 | 0.669 | 0.526 | 0.655 | 0.647 | 0.492 | 0.491 | 0.462 | 0.467 | 0.523 | 0.494 | 0.47 | 0.511 | 0.469 | 0.521 |
| LK-2 |  | 0.219 | 0.262 | 0.265 | 0.219 |  | 0.607 | 0.505 | 0.401 | 0.396 | 0.736 | 0.714 | 0.691 | 0.777 | 0.552 | 0.998 | 0.693 | 0.687 | 0.764 | 0.724 |

Source: the supplement of paper PMC10307832
